Measurements: ChEMBL document CHEMBL4834465, “Potent SARS-CoV-2 mRNA Cap Methyltransferase Inhibitors by Bioisosteric Replacement of Methionine in SAM Cosubstrate” (ACS Med Chem Lett, 2021)
pIC50: −log10 of the molar value.

Tests used:
[1] = mouse, balb/3t3 clone a31, 48 h
A549 = details: human, a549, 48 h
[2] = molecular target: T1, Glycine N-methyltransferase (Homo sapiens, UniProt Q14749); test: Inhibition of N-terminal His-tagged human recombinant Glycine-N-methyltransferase (1 to 295 residues) expressed in Escherichia coli using glycine and SAM as substrate incubated for 30 mins by HTRF assay; details: for pIC50: read-out: IC50
T1 sequence (Q14749 whole entry): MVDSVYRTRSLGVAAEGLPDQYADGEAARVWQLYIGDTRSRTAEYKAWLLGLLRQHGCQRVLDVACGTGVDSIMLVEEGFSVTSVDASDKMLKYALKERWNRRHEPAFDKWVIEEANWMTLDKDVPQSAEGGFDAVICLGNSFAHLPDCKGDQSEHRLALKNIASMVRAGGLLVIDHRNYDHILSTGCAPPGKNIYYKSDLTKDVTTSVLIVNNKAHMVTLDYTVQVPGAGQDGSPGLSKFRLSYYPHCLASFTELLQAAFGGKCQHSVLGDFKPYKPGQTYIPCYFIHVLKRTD

HepG2 = details: human, hepg2, 48 h

| SMILES | CC50 [1] | CC50 (A549) | pIC50 [2] | CC50 (HepG2) | IC50 [2] |
| --- | --- | --- | --- | --- | --- |
| Nc1ncnc2c1ncn2[C@@H]1O[C@H](CSCc2cc(O)[nH]n2)[C@@H](O)[C@H]1O | > 200 µM | > 200 µM | 6.19 | > 100 µM |  |
| Nc1ncnc2c1ncn2[C@@H]1O[C@H](CSc2cccc(C(=O)O)c2)[C@@H](O)[C@H]1O | > 200 µM | > 200 µM | 6.82 | > 100 µM |  |
| Nc1ncnc2c1ncn2[C@@H]1O[C@H](C(=O)N2CCN(CC(=O)O)CC2)[C@@H](O)[C@H]1O |  |  | 3.62 |  |  |
| Nc1ncnc2c1ncn2[C@@H]1O[C@H](C(=O)Nc2cccc(C(=O)O)c2)[C@@H](O)[C@H]1O | > 200 µM | > 200 µM | 5.66 | > 100 µM |  |
| Nc1ncnc2c1ncn2[C@@H]1O[C@H](CN(CCCC(=O)O)CCc2ccccc2)[C@@H](O)[C@H]1O | > 200 µM | > 200 µM | 5.57 | > 100 µM |  |
| Nc1ncnc2c1ncn2[C@@H]1O[C@H](CSCCc2c[nH]nn2)[C@@H](O)[C@H]1O | > 200 µM | > 200 µM | 6.41 | > 100 µM |  |
| Nc1ncnc2c1ncn2[C@@H]1O[C@H](CNCCc2ccccc2)[C@@H](O)[C@H]1O |  |  | 3.68 |  |  |
| Nc1ncnc2c1ncn2[C@@H]1O[C@H](CNCc2cc[nH]n2)[C@@H](O)[C@H]1O |  |  |  |  | Not Active |
| Nc1ncnc2c1ncn2[C@@H]1O[C@H](CSCc2cccc(C(=O)O)c2)[C@@H](O)[C@H]1O | > 200 µM | > 200 µM | 8.07 | > 100 µM |  |
| Nc1ncnc2c1ncn2[C@@H]1O[C@H](CSCc2ccc3ccccc3c2)[C@@H](O)[C@H]1O | > 200 µM | > 200 µM | 6.59 | > 100 µM |  |
| Nc1ncnc2c1ncn2[C@@H]1O[C@H](C[C@@H](N)CC[C@H](N)C(=O)O)[C@@H](O)[C@H]1O [SINEFUNGIN] | 99.2 µM | 72.9 µM |  | > 100 µM |  |
